Results taken from patent publication US8304391B2 (Affymax, Inc., priority 2003, dated 2012).
Bridges are numbered along the chain shown (N, C = ends). Roman numbers before positions name the chains, in order. Where no end group is shown, it is not given here. [ ]: non-standard residue; d: D form. The star is where a group is joined. ξ: configuration not given here. 1Nal = N[C@@H](Cc1cccc2ccccc12)C(=O)O; NH(CH2CH2O)2CH2CH2NH2 = NCCOCCOCCN*; hSer = N[C@@H](CCO)C(=O)O; ξK = NCCCCC(N)C(=O)O; Ahx = NCCCCCC(=O)O; Sar = CNCC(=O)O

Tests used:
[1] = biological target: chimeric receptor comprising the extra-cellular portion of the human EPO receptor to the intra-cellular portion of the human GCSF receptor; assay: Reporter assay (Baf3/EpoR/GCSFR fos/lux luciferase); type: cell-based; details: peptide monomers; Baf3/EpoR/GCSFR fos/lux cells, 4 h
Method: One assay is based upon a murine pre-B-cell line expressing human EPO-R and further transfected with a fos promoter-driven luciferase reporter gene construct. Upon exposure to EPO or another EPO-R agonist, such cells respond by synthesizing luciferase. Luciferase causes the emission of light upon addition of its substrate luciferin. Thus, the level of EPO-R activation in such cells may be quantitated via measurement of luciferase activity. The activity of a test peptide is measured by adding serial dilutions of the test peptide to the cells, which are then incubated for 4 hours. After incubation, luciferin substrate is added to the cells, and light emission is measured. The concentration of test peptide that results in a half-maximal emission of light is recorded as the EC50.
This assay is based upon a on a murine pre-B-cell line derived reporter cell, Baf3/EpoR/GCSFR fos/lux. […] Thus, the level of EPO-R activation in such cells may be quantitated via measurement of luciferase activity.
The Baf3/EpoR/GCSFR fos/lux cells are cultured in DMEM/F12 medium (Gibco) supplemented with 10% fetal bovine serum (FBS; Hyclone), 10% WEHI-3 supernatant (the supernatant from a culture of WEHI-3 cells, ATCC # TIB-68), and penicillin/streptomycin. […] Following a 5-minute incubation, light emission is measured on a Packard Topcount Luminometer (Packard Instrument Co., Downers Grove, Ill.). […]

[2] = tested on: human, bone marrow derived CD34+ cells; type: cell-based
Description: EPO-R signaling stimulates the differentiation of bone marrow stem cells into proliferating red blood cell precursors. This assay measures the ability of test peptides to stimulate the proliferation and differentiation of red blood cell precursors from primary human bone marrow pluripotent stem cells.
For this assay, serial dilutions of test peptide are made in IMDM medium (Gibco) supplemented with 10% FBS (Hyclone). […] The methylcellulose and peptide mixture is then vortexed thoroughly. Aliquots (100,000 cells/mL) of human, bone marrow derived CD34+ cells (Poietics/Cambrex) are thawed. The thawed cells are gently added to 0.1 mL of 1 mg/ml DNAse (Stem Cells) in a 50 mL tube. Next, 40-50 mL IMDM medium is added gently to cells: the medium is added drop by drop along the side of the 50 mL tube for the first 10 mL, and then the remaining volume of medium is slowly dispensed along the side of the tube. The cells are then spun at 900 rpm for 20 min, and the media removed carefully by gentle aspiration. The cells are resuspended in 1 ml of IMDM medium and the cell density per mL is counted on hemacytometer slide (10 μL aliquot of cell suspension on slide, and cell density is the average count×10,000 cells/mil). The cells are then diluted in IMDM medium to a cell density of 15,000 cells/mL. A 100 μL of diluted cells is then added to each 1.5 mL methyl cellulose plus peptide sample (final cell concentration in assay media is 1000 cells/mL), and the mixture is vortexed. Allow the bubbles in the mixture to disappear, and then aspirate 1 mL using blunt-end needle. Add 0.25 mL aspirated mixture from each sample into each of 4 wells of a 24-well plate (Falcon brand). Incubate the plated mixtures at 37° C. under 5% CO2 in a humid incubator for 14 days. Score for the presence of erythroid colonies using a phase microscope (5×-10× objective, final magnification of 100×).

[3] = biological target: T1, human EPO-R (Homo sapiens, UniProt P19235); assay: Proliferation assay (BaF3/Gal4/Elk/EPOR cells, MTT); type: cell-based; details: 48 h
T1 construct: expressed in transfected cells; host or cells: murine pre-B-cell line Baf3 (BaF3/Gal4/Elk/EPOR)
T1 sequence (P19235 25-508): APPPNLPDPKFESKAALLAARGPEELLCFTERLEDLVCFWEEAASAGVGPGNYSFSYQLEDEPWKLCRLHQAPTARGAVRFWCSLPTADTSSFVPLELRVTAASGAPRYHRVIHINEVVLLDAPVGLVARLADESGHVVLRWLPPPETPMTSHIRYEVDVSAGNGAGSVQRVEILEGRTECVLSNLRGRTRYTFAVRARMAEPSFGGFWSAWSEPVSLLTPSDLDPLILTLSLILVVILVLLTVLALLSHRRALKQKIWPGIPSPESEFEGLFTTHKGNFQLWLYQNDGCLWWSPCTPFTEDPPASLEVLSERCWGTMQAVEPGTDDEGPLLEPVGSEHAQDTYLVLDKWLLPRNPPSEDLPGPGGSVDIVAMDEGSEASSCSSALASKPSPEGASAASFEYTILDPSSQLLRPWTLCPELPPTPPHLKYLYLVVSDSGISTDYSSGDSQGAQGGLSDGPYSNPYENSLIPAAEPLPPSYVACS
Method: This assay is based upon a murine pre-B-cell line, Baf3, transfected to express human EPO-R. Proliferation of the resulting cell line, BaF3/Gal4/Elk/EPOR, is dependent on EPO-R activation. The degree of cell proliferation is quantitated using MTT, where the signal in the MTT assay is proportional to the number of viable cells.
The BaF3/Ga14/Elk/EPOR cells are cultured in spinner flasks in DMEM/F12 medium (Gibco) supplemented with 10% FBS (Hyclone) and 2% WEHI-3 supernatant (ATCC # TIB-68). Cultured cells are starved overnight, in a spinner flask at a cell density of 1×10^6 cells/ml, in DMEM/F12 medium supplemented with 10% FBS and 0.1% WEHI-3 supernatant. The starved cells are then washed twice with Dulbecco's PBS (Gibco), and resuspended to a density of 1×10^6 cells/ml in DMEM/F12 supplemented with 10% FBS (no WEHI-3 supernatant). 50 μL , aliquots (˜50,000 cells) of the cell suspension are then plated, in triplicate, in 96 well assay plates. […] The plated cells are then incubated for 48 h at 37° C. Next, 10 μL of MTT (Roche Diagnostics) is added to each culture dish well, and then allowed to incubate for 4 h. The reaction is then stopped by adding 10% SDS+0.01N HCl. The plates are then incubated overnight at 37° C. Absorbance of each well at a wavelength of 595 nm is then measured by spectrophotometry. Plots of the absorbance readings versus test peptide concentration are constructed and the EC50 calculated using Graph Pad software. The concentration of test peptide that results in a half-maximal absorbance is recorded as the EC50 [See Table 3: Proliferation EC50].

[4] = biological target: T2, recombinant EPO-R (Homo sapiens, UniProt P19235); assay: Competitive binding assay (AQ, bead proximity, tracer AF33068); details: tracer AF33068 30 nM, 18 hours
T2 construct: made in house; host or cells: Chinese Hamster Ovary cells
T2 sequence (P19235 25-250 limits assumed): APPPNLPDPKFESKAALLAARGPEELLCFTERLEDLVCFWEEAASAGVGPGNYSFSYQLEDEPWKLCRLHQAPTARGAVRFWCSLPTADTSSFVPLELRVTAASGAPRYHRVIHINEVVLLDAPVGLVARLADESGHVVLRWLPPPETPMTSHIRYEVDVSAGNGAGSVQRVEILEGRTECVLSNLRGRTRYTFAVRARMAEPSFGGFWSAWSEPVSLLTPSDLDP
Description: Competitive binding calculations are made using an assay in which a light signal is generated as a function of the proximity of two beads: a streptavidin donor bead bearing a biotinylated EPO-R-binding peptide tracer and an acceptor bead to which is bound EPO-R. Light is generated by non-radiative energy transfer, during which a singlet oxygen is released from a first bead upon illumination, and contact with the released singlet oxygen causes the second bead to emit light. These bead sets are commercially available (Packard). Bead proximity is generated by the binding of the EPO-R-binding peptide tracer to the EPO-R. A test peptide that competes with the EPO-R-binding peptide tracer for binding to EPO-R will prevent this binding, causing a decrease in light emission.
In more detail the method is as follows: Add 4 μL of serial dilutions of the test EPO-R agonist peptide, or positive or negative controls, to wells of a 384 well plate. Thereafter, add 2 μL/well of receptor/bead cocktail. […]
Centrifuge 1 min to mix. […] After 18 hours read light emission using an AlphaQuest reader (Packard). […]

Substance	EC50 [1] [nM]	EC90 [2] [nM]	EC50 [3] [nM]	IC50 [4] [nM]
GGLYACHMGPMT(1-nal)VCQPLRG (GGLYACHMGPMT[1Nal]VCQPLRG; cysteine pairing not given here) [AF31748]	40			
GGLYACHMGPMTVCQPLRG [AF31552]	100			
I: Ac-GGLYACHMGPITWVCQPLRGK[Ahx][Ahx] / II: Ac-GGLYACHMGPITWVCQPLRG (disulfide I:6-I:15, II:6-II:15; amide I:21-II:C; N-terminus assumed) [AF34753]		1.2		
I: Ac-GGLYACHMGPIT[1Nal]VCQPLR[Sar][ξK]-{NH(CH2CH2O)2CH2CH2NH2} / II: Ac-GGLYACHMGPIT[1Nal]VCQPLR[Sar] (disulfide I:6-I:15, II:6-II:15; amide I:21-II:C) [AF35525]		3	0.057	
I: Ac-GGLYACH[hSer](Me)GPIT[1Nal]VCQPLRGK[Ahx][Ahx] / II: Ac-GGLYACH[hSer](Me)GPIT[1Nal]VCQPLRG (disulfide I:6-I:15, II:6-II:15; amide I:21-II:C; N-terminus assumed) [AF35179]		3.7		
I: Ac-GGLYACH[hSer](Me)GPIT[1Nal]VCQPLR[Sar][ξK]-{NH(CH2CH2O)2CH2CH2NH2} / II: Ac-GGLYACH[hSer](Me)GPIT[1Nal]VCQPLR[Sar] (disulfide I:6-I:15, II:6-II:15; amide I:21-II:C) [AF35149]		2	0.057	
I: GGLYACHMGPITWVCQPLRGK-NH2 / II: GGLYACHMGPITWVCQPLRG (disulfide I:6-I:15, II:6-II:15; amide I:21-II:C) [AF32579]		3	0.142	1.7
I: GGLYACHMGPIT[1Nal]VCQPLR[Sar]K-NH2 / II: GGLYACHMGPIT[1Nal]VCQPLR[Sar] (disulfide I:6-I:15, II:6-II:15; amide I:21-II:C) [AF34994]		3.7	0.17	
I: GGLYACH[hSer](Me)GPITWVCQPLR[Sar]K-NH2 / II: GGLYACH[hSer](Me)GPITWVCQPLR[Sar] (disulfide I:6-I:15, II:6-II:15; amide I:21-II:C) [AF35090]		3.7	0.19	
I: GGLYACH[hSer](Me)GPIT[1Nal]VCQPLRGK-NH2 / II: GGLYACH[hSer](Me)GPIT[1Nal]VCQPLRG (disulfide I:6-I:15, II:6-II:15; amide I:21-II:C) [AF32881]		11		
